Laboratory results as given in the NIST ThermoML archive (doi:10.1021/acs.jced.8b00157).
Values joined by “and” are separate entries in the source; they are usually repeats but may differ in a detail not shown here. Identical values can stand only once.

Assay: an = ratio of the nth substance listed
Conditions: 100 kPa, Liquid, Buoyancy - hydrostatic balance, a2 = 1.7

[F][Al]([F])[F] [aluminum fluoride] + [F-].[K+]
Conditions | mass density
1188.2 K | 1843 kg/m3
1188.4 K | 1842 kg/m3
1188.6 K | 1842 kg/m3
1189.2 K | 1841 kg/m3
1189.7 K | 1841 kg/m3
1189.8 K | 1841 kg/m3
1190.6 K | 1840 kg/m3
1190.7 K | 1840 kg/m3
1190.9 K | 1840 kg/m3
1191.6 K | 1839 kg/m3 and 1840 kg/m3
1191.7 K | 1839 kg/m3
1191.8 K | 1840 kg/m3
1192.2 K | 1839 kg/m3
1192.4 K | 1838 kg/m3
1192.7 K | 1838 kg/m3
1192.8 K | 1838 kg/m3
1193 K | 1839 kg/m3
1193.8 K | 1837 kg/m3
1194 K | 1838 kg/m3
1194.2 K | 1837 kg/m3
1194.6 K | 1837 kg/m3
1194.9 K | 1837 kg/m3
1195.3 K | 1836 kg/m3
1195.6 K | 1835 kg/m3 and 1837 kg/m3
1195.9 K | 1835 kg/m3
1196.1 K | 1836 kg/m3
1196.3 K | 1835 kg/m3
1196.5 K | 1835 kg/m3
1197.1 K | 1835 kg/m3
1197.5 K | 1834 kg/m3
1197.7 K | 1834 kg/m3
1197.8 K | 1834 kg/m3 and 1835 kg/m3
1198.1 K | 1834 kg/m3
1198.4 K | 1833 kg/m3
1198.9 K | 1833 kg/m3
1199.6 K | 1832 kg/m3
1199.9 K | 1833 kg/m3
1200.2 K | 1832 kg/m3
1200.5 K | 1831 kg/m3
1200.7 K | 1832 kg/m3
1200.8 K | 1831 kg/m3 and 1832 kg/m3
1201.4 K | 1830 kg/m3
1201.7 K | 1830 kg/m3 and 1831 kg/m3
1202.1 K | 1831 kg/m3
1202.2 K | 1832 kg/m3
1202.4 K | 1830 kg/m3 and 1831 kg/m3
1202.9 K | 1829 kg/m3 and 1831 kg/m3
1203 K | 1829 kg/m3
1203.6 K | 1829 kg/m3
1203.8 K | 1828 kg/m3
1203.9 K | 1828 kg/m3
1204 K | 1828 kg/m3 and 1829 kg/m3
1204.3 K | 1828 kg/m3
1204.6 K | 1827 kg/m3
1204.7 K | 1827 kg/m3
1205 K | 1826 kg/m3
1205.6 K | 1826 kg/m3
1205.8 K | 1826 kg/m3
1206 K | 1827 kg/m3
1206.3 K | 1826 kg/m3
1206.6 K | 1826 kg/m3
1206.7 K | 1825 kg/m3
1207 K | 1826 kg/m3
1207.1 K | 1825 kg/m3
1207.3 K | 1824 kg/m3
1207.5 K | 1825 kg/m3
1207.6 K | 1824 kg/m3
1207.8 K | 1824 kg/m3
1207.9 K | 1825 kg/m3
1208.2 K | 1824 kg/m3
1208.4 K | 1823 kg/m3
1208.5 K | 1823 kg/m3
1208.7 K | 1822 kg/m3
1209.3 K | 1823 kg/m3
1209.7 K | 1823 kg/m3
1209.8 K | 1823 kg/m3
1210.1 K | 1821 kg/m3
1210.2 K | 1822 kg/m3
1210.5 K | 1821 kg/m3
1211 K | 1822 kg/m3
1211.2 K | 1822 kg/m3
1211.3 K | 1822 kg/m3
1211.4 K | 1821 kg/m3
1211.7 K | 1821 kg/m3 and 1820 kg/m3
1211.8 K | 1822 kg/m3
1211.9 K | 1821 kg/m3 and 1819 kg/m3
1212.3 K | 1820 kg/m3 and 1819 kg/m3
1212.6 K | 1819 kg/m3
1212.9 K | 1820 kg/m3
1213.1 K | 1820 kg/m3
1213.3 K | 1820 kg/m3
1213.5 K | 1819 kg/m3
1213.7 K | 1820 kg/m3
1213.8 K | 1819 kg/m3
1214 K | 1819 kg/m3 and 1818 kg/m3
1214.2 K | 1817 kg/m3
1214.6 K | 1819 kg/m3
1214.7 K | 1819 kg/m3
1215.1 K | 1819 kg/m3
1215.2 K | 1819 kg/m3 and 1816 kg/m3
1215.5 K | 1818 kg/m3
1215.6 K | 1816 kg/m3
1216 K | 1815 kg/m3
1216.7 K | 1814 kg/m3
1217 K | 1814 kg/m3
1217.5 K | 1813 kg/m3
1218.2 K | 1813 kg/m3
1218.7 K | 1812 kg/m3
1219.2 K | 1811 kg/m3 and 1812 kg/m3
1220.3 K | 1810 kg/m3
1220.6 K | 1809 kg/m3
1220.9 K | 1810 kg/m3
1221.8 K | 1809 kg/m3
1222.2 K | 1808 kg/m3
1222.3 K | 1808 kg/m3
1222.7 K | 1807 kg/m3
1223.3 K | 1807 kg/m3
1223.7 K | 1805 kg/m3
1223.8 K | 1806 kg/m3
